Data from patent US20190010158A1, “ANTITUMOR EFFECT POTENTIATOR COMPRISING PYRROLOPYRIMIDINE COMPOUND” (TAIHO PHARMACEUTICAL CO., LTD, priority 2015, published 2019).

What was measured:
[1] = background art, Non-patent Literature 7; decrease in plasma concentration; cited from earlier work
carbonic anhydrase II = carbonic anhydrase II (Homo sapiens, UniProt P00918); conditions: background art, Non-patent Literature 8; cited from earlier work
[2] = test system: human acute myelogenous leukemia (AML) THP-1 cell lines; assay: Example 21: tumor growth inhibition in mice, combinational treatment with azacytidine; type: in vivo; conditions: THP-1 in mice; intraperitoneally 20 mg/kg/day, days 1, 4, 8, 11, 15, 18; day 22
Description: (§1) RTVn=TVn/TV1 (equation D)
(§2) BWCn (%)=(BWn−BW1)/BW1×100 (equation F)
The test ended on day 22.

[3] = test system: tumor cell lines shown in Table 24; assay: Example 2: combined use with tyrosine kinase inhibitor, cell growth inhibition test (IC50 ratio, CI); type: cell-based; conditions: MOLT-4; for CI: at ED50
[4] = test system: human acute myelogenous leukemia (AML) MV-4-11 cell lines; assay: Example 17: tumor growth inhibition in mice, combinational treatment with gilteritinib; type: in vivo; conditions: MV-4-11 in mice; orally 3 mg/kg/day, days 1-14; day 15
Description: as §1, §2
The test ended on day 15.

**Q.** For NS(=O)(=O)OC[C@@H]1C[C@@H](n2ccc3c(N[C@H]4CCc5ccccc54)ncnc32)C[C@@H]1O [MLN4924, N-[(1S)-1-indanyl]-7-[(1R)-3α-hydroxy-4α-(sulfamoyloxymethyl)cyclopentyl]-7H-pyrrolo[2,3-d]pyrimidin-4-amine], which “transfer of administered drug to red blood cells in the blood” value [1] is on record?
**A.** Its value is “transferred to red blood cells”.

**Q.** And the “inhibition of carbonic anhydrase II activity” value (carbonic anhydrase II)?
**A.** The value was “inhibits the activity”.

**Q.** For Nc1ncn([C@@H]2O[C@H](CO)[C@@H](O)[C@H]2O)c(=O)n1 [azacytidine], which “BWC22 (%) Mean ± SD” value [2] is on record?
**A.** The value was 3.6 ± 4.5%.

**Q.** What about the “RTV22 Mean ± SD” value [2] of the same molecule?
**A.** The value was 8.8 ± 2.0.

**Q.** What about the “T/C22 (%)” value [2] of the same molecule?
**A.** The value was 45%.

**Q.** Which results are given for CCc1nc(C(N)=O)c(Nc2ccc(N3CCC(N4CCN(C)CC4)CC3)c(OC)c2)nc1NC1CCOCC1 [gilteritinib]?
**A.** CI ([3]; Reference Example Compound 55:other compound 1:20): 0.96; CI ([3]; Reference Example Compound 55:other compound 1:60): 0.88; Comprehensive Evaluation ([3]; combined use with Reference Example Compound 55): Additive (0.9-1.10); BWC15 (%) Mean ± SD [4]: 5.8 ± 3.0%; RTV15 Mean ± SD [4]: 1.9 ± 0.5; T/C15 (%) [4]: 41%
